We go through 39 molecules from the Kinase Knowledgebase extract (Sharma et al. 2016).

For assay [1], the target named is PIK3CD (Human) (UniProt O00329). The experiment in a line: Inhibition of PIK3CD Kinase Activity.
Assay [2] shares this target. As to the kind of experiment: Enzyme Assay.
Assay [3] addresses PIK3CA (human) (UniProt P42336). As to the kind of experiment: Enzyme Assay.
In the next assay the target is PIK3CG (human) (UniProt P48736). As to the kind of experiment: Assessment of PIK3CG Kinase Activity.
Sequence of PIK3CG (human) (P48736 whole entry, looked up): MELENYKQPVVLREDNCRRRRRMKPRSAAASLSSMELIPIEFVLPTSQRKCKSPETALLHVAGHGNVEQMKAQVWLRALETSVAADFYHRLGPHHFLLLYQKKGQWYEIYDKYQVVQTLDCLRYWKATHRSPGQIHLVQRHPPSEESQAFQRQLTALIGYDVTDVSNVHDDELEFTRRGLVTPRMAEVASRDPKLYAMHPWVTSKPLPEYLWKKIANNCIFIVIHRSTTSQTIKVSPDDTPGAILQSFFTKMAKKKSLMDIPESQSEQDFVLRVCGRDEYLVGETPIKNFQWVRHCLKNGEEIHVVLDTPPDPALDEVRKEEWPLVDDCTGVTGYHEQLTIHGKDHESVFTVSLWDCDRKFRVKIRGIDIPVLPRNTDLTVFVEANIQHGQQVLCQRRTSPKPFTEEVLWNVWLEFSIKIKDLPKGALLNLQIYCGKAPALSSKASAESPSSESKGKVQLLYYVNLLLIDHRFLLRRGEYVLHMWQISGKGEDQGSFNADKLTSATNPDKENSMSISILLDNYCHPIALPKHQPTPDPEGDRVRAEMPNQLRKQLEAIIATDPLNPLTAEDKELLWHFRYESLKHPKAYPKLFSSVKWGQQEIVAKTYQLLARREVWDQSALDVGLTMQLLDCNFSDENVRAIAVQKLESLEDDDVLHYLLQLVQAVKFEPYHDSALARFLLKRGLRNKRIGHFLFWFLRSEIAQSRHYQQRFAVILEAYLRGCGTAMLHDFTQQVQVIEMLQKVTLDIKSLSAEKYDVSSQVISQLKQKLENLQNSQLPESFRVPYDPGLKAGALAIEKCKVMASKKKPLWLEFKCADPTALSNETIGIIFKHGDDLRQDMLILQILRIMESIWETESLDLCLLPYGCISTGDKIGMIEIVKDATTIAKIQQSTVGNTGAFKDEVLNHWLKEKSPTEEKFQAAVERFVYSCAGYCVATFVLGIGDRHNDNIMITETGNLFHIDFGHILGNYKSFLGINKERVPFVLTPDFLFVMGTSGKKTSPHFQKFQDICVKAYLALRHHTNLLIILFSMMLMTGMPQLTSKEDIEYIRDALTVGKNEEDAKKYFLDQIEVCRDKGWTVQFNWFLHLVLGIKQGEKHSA
The target of assay [4] is PIK3CA (human) (UniProt P42336). As to the kind of experiment: Assessment of PIK3CA Kinase Activity.
Sequence of PIK3CA (human) (P42336 whole entry, looked up): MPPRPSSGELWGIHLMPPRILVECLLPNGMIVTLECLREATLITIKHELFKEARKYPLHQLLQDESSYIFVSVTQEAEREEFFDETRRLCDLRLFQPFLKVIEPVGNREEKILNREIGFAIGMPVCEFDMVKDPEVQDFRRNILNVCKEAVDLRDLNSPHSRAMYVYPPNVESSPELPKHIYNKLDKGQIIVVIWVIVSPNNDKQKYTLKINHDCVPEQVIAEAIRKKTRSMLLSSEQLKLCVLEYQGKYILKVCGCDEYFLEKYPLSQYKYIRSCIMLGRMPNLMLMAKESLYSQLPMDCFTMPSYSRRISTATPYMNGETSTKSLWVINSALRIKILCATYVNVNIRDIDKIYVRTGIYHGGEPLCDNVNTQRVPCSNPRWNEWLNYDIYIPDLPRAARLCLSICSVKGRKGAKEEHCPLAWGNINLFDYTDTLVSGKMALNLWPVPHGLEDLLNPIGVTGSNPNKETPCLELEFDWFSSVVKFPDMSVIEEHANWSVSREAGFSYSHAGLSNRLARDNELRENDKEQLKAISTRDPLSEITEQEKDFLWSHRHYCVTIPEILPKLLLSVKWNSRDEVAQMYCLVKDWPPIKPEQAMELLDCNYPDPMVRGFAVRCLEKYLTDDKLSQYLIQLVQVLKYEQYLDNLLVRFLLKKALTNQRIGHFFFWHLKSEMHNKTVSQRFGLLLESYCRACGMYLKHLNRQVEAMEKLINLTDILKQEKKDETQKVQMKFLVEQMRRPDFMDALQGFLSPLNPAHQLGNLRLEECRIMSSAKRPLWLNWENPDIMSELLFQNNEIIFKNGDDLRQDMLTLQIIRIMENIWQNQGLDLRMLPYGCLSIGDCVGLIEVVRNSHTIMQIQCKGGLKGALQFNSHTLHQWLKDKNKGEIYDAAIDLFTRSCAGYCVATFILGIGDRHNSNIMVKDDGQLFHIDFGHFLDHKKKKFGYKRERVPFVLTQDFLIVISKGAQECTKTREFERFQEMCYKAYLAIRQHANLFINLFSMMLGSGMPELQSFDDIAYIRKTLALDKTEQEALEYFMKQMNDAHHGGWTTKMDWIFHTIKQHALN
Assay [5] addresses PIK3CD (Human) (UniProt O00329). The experiment in a line: Assessment of PIK3CD Kinase Activity.
The next assay concerns the target CDK2 (human) (UniProt P24941). The experiment in a line: Cell-Based Assay. The following applies: mcf-7.
Another assay deals with ROCK2 (human) (UniProt O75116). The experiment in a line: Enzyme Assay.
Sequence of ROCK2 (human) (O75116 whole entry, looked up): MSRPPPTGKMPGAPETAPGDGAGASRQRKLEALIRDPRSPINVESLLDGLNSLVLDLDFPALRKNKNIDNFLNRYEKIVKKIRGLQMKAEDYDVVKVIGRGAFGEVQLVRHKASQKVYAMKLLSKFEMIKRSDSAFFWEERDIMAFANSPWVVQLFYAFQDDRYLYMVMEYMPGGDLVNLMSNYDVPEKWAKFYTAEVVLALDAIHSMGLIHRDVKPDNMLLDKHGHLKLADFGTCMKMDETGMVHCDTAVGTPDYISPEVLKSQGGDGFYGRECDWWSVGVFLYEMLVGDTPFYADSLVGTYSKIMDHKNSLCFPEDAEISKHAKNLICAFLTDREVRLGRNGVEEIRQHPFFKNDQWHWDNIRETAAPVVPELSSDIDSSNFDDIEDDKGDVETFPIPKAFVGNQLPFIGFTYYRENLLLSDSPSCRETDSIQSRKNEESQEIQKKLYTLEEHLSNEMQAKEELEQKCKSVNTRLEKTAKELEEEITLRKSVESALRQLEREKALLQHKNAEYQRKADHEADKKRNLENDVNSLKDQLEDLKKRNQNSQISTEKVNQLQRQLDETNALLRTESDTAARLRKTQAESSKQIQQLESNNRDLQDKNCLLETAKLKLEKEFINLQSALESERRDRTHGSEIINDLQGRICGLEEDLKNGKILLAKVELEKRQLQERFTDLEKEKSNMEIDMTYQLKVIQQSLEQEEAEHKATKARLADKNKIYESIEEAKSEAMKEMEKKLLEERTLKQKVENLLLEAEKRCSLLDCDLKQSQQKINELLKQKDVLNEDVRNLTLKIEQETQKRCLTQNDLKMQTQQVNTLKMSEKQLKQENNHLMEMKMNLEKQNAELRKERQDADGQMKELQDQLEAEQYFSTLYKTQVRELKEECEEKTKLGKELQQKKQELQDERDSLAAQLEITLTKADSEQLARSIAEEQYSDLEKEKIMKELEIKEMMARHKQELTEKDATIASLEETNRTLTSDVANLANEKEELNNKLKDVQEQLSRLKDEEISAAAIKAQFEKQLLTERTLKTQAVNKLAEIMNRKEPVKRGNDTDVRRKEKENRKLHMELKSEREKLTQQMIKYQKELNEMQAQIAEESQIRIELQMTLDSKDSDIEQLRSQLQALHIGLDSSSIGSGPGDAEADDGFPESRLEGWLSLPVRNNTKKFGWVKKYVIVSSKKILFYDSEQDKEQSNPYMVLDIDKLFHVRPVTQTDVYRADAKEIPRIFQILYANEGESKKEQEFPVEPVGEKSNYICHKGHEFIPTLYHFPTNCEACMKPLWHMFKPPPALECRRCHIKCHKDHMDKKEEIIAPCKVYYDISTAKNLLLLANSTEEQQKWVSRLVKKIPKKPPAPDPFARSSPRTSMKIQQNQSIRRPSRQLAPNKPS
The target of assay [6] is PIK3CA (human) (UniProt P42336). The experiment in a line: Inhibition of PIK3CA Kinase Activity.

Structures are written as SMILES. “And” between values parts separate entries of the source, which are not always exact repeats. Equal values may be shown once. Some results are limits rather than exact numbers.

Sequence of PIK3CD (Human) (O00329 whole entry, looked up): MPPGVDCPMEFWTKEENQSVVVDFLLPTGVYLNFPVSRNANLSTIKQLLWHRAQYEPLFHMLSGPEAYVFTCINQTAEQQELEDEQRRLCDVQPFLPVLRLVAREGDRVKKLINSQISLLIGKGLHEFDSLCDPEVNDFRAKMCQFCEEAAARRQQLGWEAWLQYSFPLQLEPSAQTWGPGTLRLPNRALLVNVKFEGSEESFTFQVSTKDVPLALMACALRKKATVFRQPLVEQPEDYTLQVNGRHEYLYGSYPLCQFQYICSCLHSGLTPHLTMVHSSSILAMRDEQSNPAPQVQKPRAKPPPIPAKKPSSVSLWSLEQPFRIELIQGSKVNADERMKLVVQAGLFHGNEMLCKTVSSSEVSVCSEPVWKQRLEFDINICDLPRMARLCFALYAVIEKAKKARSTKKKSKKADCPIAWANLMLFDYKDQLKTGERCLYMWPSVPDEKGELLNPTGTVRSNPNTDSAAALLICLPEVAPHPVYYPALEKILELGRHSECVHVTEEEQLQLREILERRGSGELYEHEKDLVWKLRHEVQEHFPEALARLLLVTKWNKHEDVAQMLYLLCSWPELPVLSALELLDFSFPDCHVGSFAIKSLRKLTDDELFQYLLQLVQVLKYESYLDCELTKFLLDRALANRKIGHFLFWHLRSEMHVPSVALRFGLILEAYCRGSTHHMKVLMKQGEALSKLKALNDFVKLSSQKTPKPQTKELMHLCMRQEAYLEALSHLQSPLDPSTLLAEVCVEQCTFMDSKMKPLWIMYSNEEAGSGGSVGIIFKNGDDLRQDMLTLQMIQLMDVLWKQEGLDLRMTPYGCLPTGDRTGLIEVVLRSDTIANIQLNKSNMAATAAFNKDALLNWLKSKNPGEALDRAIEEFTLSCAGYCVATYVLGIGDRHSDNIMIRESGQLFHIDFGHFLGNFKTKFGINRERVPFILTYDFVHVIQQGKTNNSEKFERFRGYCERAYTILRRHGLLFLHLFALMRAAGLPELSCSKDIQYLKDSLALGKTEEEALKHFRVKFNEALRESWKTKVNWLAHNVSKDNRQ

As usually defined, the IC50 is the concentration that gives 50% inhibition. A high value points to lower potency. Molecule `O=C1NC(=O)/C(=C/c2ccc3c(c2)OCCO3)S1` came in with a half-maximal inhibitory concentration (IC50) against PIK3CD (Human) [1] of 20000 nM.

For orientation: Ki means the dissociation constant of the complex between target and ligand, obtained from inhibition or displacement. In the case of `CCNC(=O)Nc1ccc(-c2nc(N3CCOC[C@H]3C)c3c(ncn3C)n2)cc1`, the inhibition constant (Ki) on PIK3CD (Human) [2] amounted to 4000 nM; at PIK3CA (human) [3], 5800 nM.

As to `CCNC(=O)Oc1nc2cc(-c3nc(N4CCOCC4)c4ccn(CC(F)(F)F)c4n3)ccc2[nH]1`, the results for the IC50 against PIK3CG (human) and at PIK3CA (human) [4] were 210 nM and 1840 nM, respectively.

Regarding `Oc1cncc(-c2nc(C3=CCOCC3)c3ncn(C4CCN(Cc5cncc(Br)c5)CC4)c3n2)c1`, the values for the half-maximal inhibitory concentration (IC50) on PIK3CG (human) and on PIK3CA (human) [4] were 6740 nM and 1340 nM, respectively.

In the case of `CC(=O)Nc1nc2ccc(-c3cccc(-c4nc(C)no4)c3)cn2n1`, the IC50 against PIK3CG (human) is greater than 20000 nM; against PIK3CD (Human) [5] it was greater than 100000 nM.

Consider `O=C1NC(=O)/C(=C/c2ccc3cc(F)oc3c2)S1`, for which the half-inhibitory concentration (IC50) against PIK3CD (Human) [1] is 20000 nM.

In the case of `COc1cc2sc(C(=O)Nc3nnn[nH]3)c(SCCc3ccccc3)c2cc1C`, at PIK3CG (human), the 50% inhibitory concentration (IC50) worked out at 215 nM.

Molecule `COCCNS(=O)(=O)c1ccc(Nc2nccc(-c3c(C)nc4cccnn34)n2)cc1` gave an IC50 at CDK2 (human) of 230 nM.

As for `CCOC(=O)c1cc(Nc2nc(C)c3cc(F)c(=O)n(C4CCCC4)c3n2)cn1CCc1ccccc1`, on PIK3CG (human), the IC50 worked out at 160 nM.

In turn, `O=C1NC(=O)/C(=C/c2ccc3c(c2)NCCO3)S1` had an IC50 at PIK3CD (Human) [1] of 20000 nM.

On ROCK2 (human), `C.COC(=O)c1ccc(C(=O)Nc2cccc(CNC3CCC(Nc4cccc5cnccc45)CC3)c2)cc1` (configuration not stated) displayed an IC50 of less than 100 nM.

Consider `C[C@H](Nc1ncnc2[nH]cnc12)c1cc2cccc(Cl)c2nc1-c1cc(F)ccc1Cl`, for which the IC50 at PIK3CD (Human) [1] was 8 nM.

On PIK3CD (Human) [5], `Cc1c(N2CCN(C(=O)N(C)C)CC2)nc2cc(F)cc(F)c2c1Nc1cncc(N2CCOCC2)c1C(=O)N(C)C` showed a Ki of 81.6 nM.

With `COc1cc(C(=O)NCc2ccc(Cl)cc2)ccc1-c1cn[nH]c1`, at ROCK2 (human), the IC50 stood at 4.93 nM.

With `COc1cc2c(Sc3cccc(Cl)c3)c(C(=O)Nc3nnn[nH]3)sc2cc1C`, the IC50 against PIK3CG (human) came to 170 nM. This lies in the sub-micromolar range.

The molecule `COc1ccc2c(c1)CN(c1nc3c(c(Nc4ccc5[nH]ncc5c4)n1)CNC3)C2` registered a half-maximal inhibitory concentration (IC50) against ROCK2 (human) of 24300 nM.

Regarding `CC(=O)Nc1nc(C)c(-c2ccc(S(C)(=O)=O)cn2)s1`, the 50% inhibitory concentration (IC50) against PIK3CG (human) was found to be 1840 nM.

Take `Nc1cccc(CN2CC[C@@H](Nc3cccc4cnccc34)C2)c1`: the IC50 on ROCK2 (human) amounted to 25 nM.

Consider `C[C@H](Nc1ncnc(N)c1C#N)c1nc2ccc(F)cc2c(C#N)c1-c1ccccc1`, for which the Ki on PIK3CD (Human) [5] was 2.76 nM and 1.33 nM.

As to `Fc1ccc(Cl)c(-c2nc3c(Cl)cccc3cc2CNc2ncnc3[nH]cnc23)c1`, the IC50 on PIK3CD (Human) [1] was determined as 71 nM.

On to `O=C(Nc1ccc(-c2nc(N3CCOCC3)nc(N3CCOCC3)n2)cc1)NC1CCNCC1`, for which the IC50 at PIK3CG (human) amounted to 7470 nM; against PIK3CA (human) [4] it was 1520 nM.

For the molecule `CC(Nc1ncnc(N)c1C#N)c1nc2ccc(F)cc2c(C(=O)N(C)C)c1-c1ccccn1` (configuration not stated), the inhibition constant (Ki) on PIK3CD (Human) [5] worked out at 7.77 nM.

`CC(=O)Nc1nc(C)c(-c2ccc(S(=O)(=O)N[C@H](CO)c3ccccc3)o2)s1` yielded a Ki at PIK3CG (human) of less than 100 nM.

In turn, `COc1ccc2sc(C(=O)Nc3nnn[nH]3)c(Sc3ccoc3C)c2c1` yielded an IC50 against PIK3CG (human) of 2210 nM.

For `COc1ncc(N2CCc3ncnc(N[C@H]4CCN(C(=O)[C@H]5CC[C@@H](O)CC5)C4)c3C2)cc1C(F)(F)F`, the IC50 at PIK3CD (Human) [2] was 4 nM; against PIK3CA (human) [3], 118 nM.

The molecule `COc1cc(C(=O)NCc2cccc(Cl)c2)ccc1-c1cn[nH]c1` showed an IC50 against ROCK2 (human) of 49.7 nM. In other words, the double-digit nanomolar range.

As for `CN(C)CCCNS(=O)(=O)c1ccc(Nc2nccc(-c3cnc4cccnn34)n2)cc1`, the half-maximal inhibitory concentration (IC50) at CDK2 (human) turned out to be 430 nM.

For the molecule `N=C1NC(=O)/C(=C/c2ccc3c(c2)OCO3)S1`, the IC50 at PIK3CD (Human) [1] and against PIK3CA (human) [6] was 20000 nM throughout.

As to `CC(Nc1ncnc2[nH]cnc12)c1cc(Cl)c2cncn2c1-c1cccc(F)c1` (configuration not stated), on PIK3CD (Human) [5], the IC50 is no more than 50 nM.

`Cc1c(-c2ccccc2[S+](C)[O-])nc2cc(F)cc(F)c2c1Nc1cc(N2CCOCC2)cnc1N1CCOCC1` (configuration not stated) gave a Ki at PIK3CD (Human) [5] of 51 nM.

In turn, `CCOc1ccc2sc(C(=O)Nc3nnn[nH]3)c(SCCc3ccccc3)c2c1` displayed an IC50 on PIK3CG (human) of 2850 nM. That is a single-digit micromolar value.

As to `CN1C(=O)COc2ccc(/C=C3\SC(=O)NC3=O)cc21`, the concentration for half-maximal inhibition (IC50) on PIK3CD (Human) [1] came to 20000 nM. That is a double-digit micromolar value.

For `C[C@H](Nc1ncnc(N)c1C#N)c1nc2ccc(F)cc2c(C(=O)O)c1-c1ccccc1`, the inhibition constant (Ki) at PIK3CD (Human) [5] worked out at 74.2 nM.

Molecule `Oc1ccc(-c2nc(-c3ccc(F)cc3)c(-c3ccncc3)[nH]2)cc1` yielded a Ki on ROCK2 (human) of 3980 nM.

As for `COCCC(=O)c1ccc(C(=O)Nc2cccc(CN3CCC(Nc4cccc5cnccc45)CC3)c2)cc1`, at ROCK2 (human), the IC50 was less than 100 nM.

In the case of `COc1cccc([C@@H](C)NC(=O)c2cc3ccc(-c4cn[nH]c4)cc3[nH]2)c1`, the IC50 against ROCK2 (human) is 1 nM. That is a single-digit nanomolar value.

Take `O=c1n(Cc2ccccc2)c2nc(-c3cccc(O)c3)nc(C3=CCOCC3)c2n1Cc1ccccc1`: the half-maximal inhibitory concentration (IC50) was 1610 nM against PIK3CG (human) and 2420 nM on PIK3CA (human) [4].

For the molecule `CC(Nc1ncnc(N)c1C#N)c1nc2ccc(F)cc2c([S+]([O-])CCO)c1-c1ccccc1` (configuration not stated), the Ki at PIK3CD (Human) [5] was 1.8 nM and 2.48 nM.

Molecule `CCOC(=O)c1cc(Nc2nc(C)c3ccc(=O)n(C)c3n2)cn1CCc1ccccc1` displayed a half-inhibitory concentration (IC50) on PIK3CG (human) of 63 nM.
